Results from PMC12064818, “A general assay platform to study protein pharmacology using ligand-dependent structural dynamics” (Nature Communications, 2025).
Like-named read-outs stand apart in the source and are kept apart here.

Assays:
[1] = biological target: FLuc-C-HiBiT (firefly luciferase) (Photinus pyralis, UniProt P08659, form not given/L550V); test: SDR assay, FLuc-C-HiBiT; settings: SDR max. response, clade S
[2] = biological target: FLuc-C-NLuc (firefly luciferase) (Photinus pyralis, UniProt P08659, form not given/L550V); test: SDR assay, FLuc-C-NLuc; settings: - ATP
Sequence of FLuc-C-NLuc (firefly luciferase) (P08659 2-550 L550V, form open): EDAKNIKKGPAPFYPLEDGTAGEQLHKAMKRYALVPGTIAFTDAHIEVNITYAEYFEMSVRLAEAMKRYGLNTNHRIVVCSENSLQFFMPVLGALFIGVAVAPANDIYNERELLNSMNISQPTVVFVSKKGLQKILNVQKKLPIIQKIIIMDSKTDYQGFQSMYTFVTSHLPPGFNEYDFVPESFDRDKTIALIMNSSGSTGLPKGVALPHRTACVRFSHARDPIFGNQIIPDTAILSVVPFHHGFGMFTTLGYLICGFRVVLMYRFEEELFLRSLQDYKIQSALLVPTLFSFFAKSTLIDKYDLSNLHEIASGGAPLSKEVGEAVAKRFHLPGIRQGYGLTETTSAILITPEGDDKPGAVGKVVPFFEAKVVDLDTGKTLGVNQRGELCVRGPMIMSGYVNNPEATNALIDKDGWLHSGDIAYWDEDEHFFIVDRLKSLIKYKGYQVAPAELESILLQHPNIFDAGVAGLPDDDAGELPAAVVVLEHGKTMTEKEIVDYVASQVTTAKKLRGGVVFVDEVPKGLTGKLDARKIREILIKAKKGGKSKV

NLuc = biological target: T1, NLuc (Oplophorus gracilirostris, UniProt Q9GV45, A31E/A60N/A81I/F95D/I117V/K70R/L54V/L99Q/M102K/N193R/P142E/Q151K/Q38R/Q45L/V71I/Y165I); type: biochemical; settings: - ATP
T1 construct: His tag (inferred from IMAC purification); made in house; host or cells: E. coli
T1 sequence (Q9GV45 other isoform, or with tags, fused parts or gaps with the stated changes): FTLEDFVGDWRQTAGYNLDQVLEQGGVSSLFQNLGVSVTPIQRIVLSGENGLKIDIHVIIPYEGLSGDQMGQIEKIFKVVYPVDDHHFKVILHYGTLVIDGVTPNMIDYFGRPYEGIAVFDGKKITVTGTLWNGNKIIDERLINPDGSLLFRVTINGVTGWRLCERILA
Protocol: Compounds and controls were added to plates as described in Supplementary Data 8. Nano-Glo luciferase assay reagent (Promega) was prepared fresh according to manufacturer’s protocol, filtered and added at 3 μL per well across assay plates with a BioRaptr2 dispenser. Enzyme was incubated with Nano-Glo reagent for 10 min and NLuc luminescence was read on a ViewLux CCD imager (PerkinElmer), with 1 s exposure with medium gain and 2x binning. Data were normalized to average no enzyme control as 100% enzyme inhibition and average DMSO neutral control. See Supplementary Table 4 for additional details.
Supplementary Table 4. […]
Sequence Param eter Value Description […]
5 Detector ViewLux Read plate lum inescence (Exposure = 1- 10 sec; Gain = Medium -high; Speed = Slow;
Dispensing solution was diluted in 1X PBS, pH 7.4.
NanoLuc luciferase (NLuc) enzym atic lum inescence assay […]
Nano-Glo luciferase assay reagent (Prom ega, Cat # N1120) prepared according to m anufacturer’s recom m endations,
4 com ponents stored at -30 °C until use, and reagent prepared fresh for each assay.
syringe filter prior to dispense.

P. pyralis FLuc = P. pyralis FLuc (Photinus pyralis, UniProt P08659); test: FLuc enzymatic luminescence assay, P. pyralis FLuc; type: biochemical; settings: FLuc enzymatic assay; for IC50: read-out: IC50 or SDR50 (mM) FLuc E
Sequence of P. pyralis FLuc (P08659 whole entry): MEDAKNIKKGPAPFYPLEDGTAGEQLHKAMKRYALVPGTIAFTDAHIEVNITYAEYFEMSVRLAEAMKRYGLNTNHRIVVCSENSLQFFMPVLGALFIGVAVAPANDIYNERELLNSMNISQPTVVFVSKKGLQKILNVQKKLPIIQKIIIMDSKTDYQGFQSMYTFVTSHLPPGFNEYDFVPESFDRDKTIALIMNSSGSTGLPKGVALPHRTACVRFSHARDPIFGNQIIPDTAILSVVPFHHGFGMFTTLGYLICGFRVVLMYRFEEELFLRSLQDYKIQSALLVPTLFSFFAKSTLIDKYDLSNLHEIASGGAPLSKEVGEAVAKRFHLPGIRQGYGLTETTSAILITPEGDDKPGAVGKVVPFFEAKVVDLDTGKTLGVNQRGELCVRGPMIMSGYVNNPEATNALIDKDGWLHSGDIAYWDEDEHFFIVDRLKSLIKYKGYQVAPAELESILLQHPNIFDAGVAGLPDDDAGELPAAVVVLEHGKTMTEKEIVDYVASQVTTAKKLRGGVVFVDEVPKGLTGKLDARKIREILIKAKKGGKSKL
Outline: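 Runs with and without 10 µM ATP: compounds were pre-incubated with FLuc (1–10 nM, PBS pH 7.4) at ambient temperature, light-protected, for 30–60 min. Luminescence was imaged 5 min after adding 10 µM D-luciferin (final). Inhibition was scaled between DMSO neutral and no-enzyme controls.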

Sequence of FLuc-C-HiBiT (firefly luciferase) (P08659 2-550 L550V, form open): as the sequence (P08659 2-550 L550V, form open) above

Row | SMILES | % Activity (max response, + ATP) [1] [%] | % Activity (max response, - ATP) [1] [%] | Efficacy (%) FLuc-C-NLuc SDR (-ATP) [2] [%] | Efficacy (%) NLuc (- ATP) (NLuc) [%] | Efficacy (%) FLuc E (P. pyralis FLuc; Clade S follow-up) [%] | pIC50 or pSDR50 FLuc E (P. pyralis FLuc) | IC50 (P. pyralis FLuc) [mM] | pIC50 or pSDR50 FLuc E (P. pyralis FLuc; Clade S follow-up) | IC50 (P. pyralis FLuc; Clade S follow-up) [mM]
1 | CC1CCC(NC(=O)C2CCN(C(=O)c3ncn4c3COC(c3ccc(F)cc3)C4)CC2)CC1 (stereo not drawn) [NCGC00449808-01] | 39.00 | 0.00 | 0.00 | 0.00 | -26.58 | – | – | – | –
2 | O=C(NC1CCCCCC1)C1CCN(C(=O)c2ncn3c2COC(c2ccc(F)cc2)C3)CC1 (stereo not drawn) [NCGC00449809-01] | 14.91 | 0.00 | 0.00 | 0.00 | -10.94 | – | – | – | –
3 | O=C(NC1CCCCCCC1)C1CCN(C(=O)c2ncn3c2COC(c2ccc(F)cc2)C3)CC1 (stereo not drawn) [NCGC00449810-01] | 34.91 | 0.00 | 0.00 | 0.00 | -21.88 | 4.81 | 0.0157 | – | –
4 | O=C(NCCC1=CCCCC1)C1CCN(C(=O)c2ncn3c2COC(c2ccc(F)cc2)C3)CC1 (stereo not drawn) [NCGC00449811-01] | 50.67 | 0.00 | 0.00 | 0.00 | -41.16 | 5.01 | 0.00988 | – | –
5 | CCCCNC(=O)C1CCN(C(=O)c2ncn3c2COC(c2ccc(F)cc2)C3)CC1 (stereo not drawn) [NCGC00449812-01] | 23.59 | 0.00 | 0.00 | 0.00 | -17.96 | 4.91 | 0.0124 | – | –
6 | O=C(NCc1ccccc1)C1CCN(C(=O)c2ncn3c2COC(c2ccc(F)cc2)C3)CC1 (stereo not drawn) [NCGC00449813-01] | 33.80 | 0.00 | 0.00 | 0.00 | -31.52 | 4.91 | 0.0124 | – | –
7 | Cc1ccc(CNC(=O)C2CCN(C(=O)c3ncn4c3COC(c3ccc(F)cc3)C4)CC2)cc1 (stereo not drawn) [NCGC00449814-01] | 17.69 | 0.00 | 0.00 | 0.00 | -11.84 | – | – | – | –
8 | CCc1ccc(CNC(=O)C2CCN(C(=O)c3ncn4c3COC(c3ccc(F)cc3)C4)CC2)cc1 (stereo not drawn) [NCGC00449815-01] | 20.00 | 0.00 | 0.00 | 0.00 | -15.14 | – | – | – | –
9 | O=C(NCc1ccccc1F)C1CCN(C(=O)c2ncn3c2COC(c2ccc(F)cc2)C3)CC1 (stereo not drawn) [NCGC00449818-01] | 27.35 | 0.00 | 0.00 | 0.00 | -20.04 | – | – | – | –
10 | O=C(NCc1ccc(F)cc1F)C1CCN(C(=O)c2ncn3c2COC(c2ccc(F)cc2)C3)CC1 (stereo not drawn) [NCGC00449819-01] | 18.59 | 0.00 | 0.00 | 0.00 | -12.89 | – | – | – | –
11 | O=C(NCc1cc(F)cc(F)c1)C1CCN(C(=O)c2ncn3c2COC(c2ccc(F)cc2)C3)CC1 (stereo not drawn) [NCGC00449820-01] | 44.22 | 0.00 | 0.00 | 0.00 | -30.45 | 4.96 | 0.0111 | – | –
12 | CC(NC(=O)C1CCN(C(=O)c2ncn3c2COC(c2ccc(F)cc2)C3)CC1)c1ccccc1 (stereo not drawn) [NCGC00449824-01] | 0.00 | 0.00 | 0.00 | 0.00 | -12.35 | – | – | – | –
13 | CC(NC(=O)C1CCN(C(=O)c2ncn3c2COC(c2ccc(F)cc2)C3)CC1)c1ccc(F)cc1 (stereo not drawn) [NCGC00449825-01] | 0.00 | 0.00 | 0.00 | 0.00 | 0.00 | – | – | – | –
14 | O=C(NCCc1ccccc1)C1CCN(C(=O)c2ncn3c2COC(c2ccc(F)cc2)C3)CC1 (stereo not drawn) [NCGC00449826-01] | 27.00 | 0.00 | 0.00 | 0.00 | -26.42 | – | – | – | –
15 | CC(CNC(=O)C1CCN(C(=O)c2ncn3c2COC(c2ccc(F)cc2)C3)CC1)c1ccccc1 (stereo not drawn) [NCGC00449827-01] | 15.49 | 0.00 | 0.00 | 0.00 | -13.06 | – | – | – | –
16 | O=C(NCCCc1ccccc1)C1CCN(C(=O)c2ncn3c2COC(c2ccc(F)cc2)C3)CC1 (stereo not drawn) [NCGC00449829-01] | 29.00 | 0.00 | 0.00 | -7.00 | -36.00 | 4.96 | 0.0111 | – | –
17 | O=C(NCC1CCCCC1)C1CCN(C(=O)c2ncn3c2COC(c2ccc(F)cc2)C3)CC1 (stereo not drawn) [NCGC00449830-01] | 0.00 | 0.00 | 0.00 | 0.00 | 0.00 | – | – | – | –
18 | COCCNC(=O)C1CCN(C(=O)c2ncn3c2COC(c2ccc(F)cc2)C3)CC1 (stereo not drawn) [NCGC00449834-01] | 67.53 | 0.00 | 0.00 | 0.00 | -35.83 | – | – | 4.91 | 0.0124
19 | O=C(NCC1CCCO1)C1CCN(C(=O)c2ncn3c2COC(c2ccc(F)cc2)C3)CC1 (stereo not drawn) [NCGC00449835-01] | 54.34 | 0.00 | 0.00 | 0.00 | -45.21 | – | – | 5.01 | 0.00988
20 | Cc1cccc(CNC(=O)C2CCN(C(=O)c3ncn4c3COC(c3ccc(F)cc3)C4)CC2)c1 (stereo not drawn) [NCGC00449836-01] | 48.27 | 0.00 | 0.00 | -9.94 | -28.36 | – | – | 4.91 | 0.0124
21 | O=C(NCc1cccc(F)c1)C1CCN(C(=O)c2ncn3c2COC(c2ccc(F)cc2)C3)CC1 (stereo not drawn) [NCGC00449837-01] | 75.17 | 0.00 | 0.00 | 0.00 | -43.87 | – | – | 5.01 | 0.00988
22 | O=C(NC1CC1)C1CCN(C(=O)c2ncn3c2COC(c2ccc(Cl)cc2)C3)CC1 (stereo not drawn) [NCGC00449842-01] | 18.50 | 0.00 | 0.00 | 0.00 | -28.68 | – | – | – | –
23 | O=C(NC1CCCC1)C1CCN(C(=O)c2ncn3c2COC(c2ccc(Cl)cc2)C3)CC1 (stereo not drawn) [NCGC00449843-01] | 0.00 | 0.00 | 0.00 | 0.00 | -13.86 | – | – | – | –
24 | O=C(NC1CCCCC1)C1CCN(C(=O)c2ncn3c2COC(c2ccc(Cl)cc2)C3)CC1 (stereo not drawn) [NCGC00449844-01] | 33.25 | 0.00 | 0.00 | 0.00 | -39.79 | – | – | 4.96 | 0.0111
25 | CC1CCC(NC(=O)C2CCN(C(=O)c3ncn4c3COC(c3ccc(Cl)cc3)C4)CC2)CC1 (stereo not drawn) [NCGC00449845-01] | 0.00 | 0.00 | 0.00 | 0.00 | 0.00 | – | – | – | –
